According to patent US20020091095A1, “Modulation of Fas and FasL expression” (priority 1999, published 2002):

Columns and labels:
Fas [1] = assay: Fas expression at the cell surface by flow cytometry, T-24 cells; assay type: cell-based, human; details: T-24 bladder cancer cells, 100 μg/ml sequence, 48 h, treated vs control cells
Method in brief: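 T-24 bladder cancer cells (p53-mutant, human) at 1.0×10^5 cells/ml were exposed for 48 h at 37 °C to 100 μg/ml […] of 6-base sequences or to no sequence. Fas and FasL were stained with FITC- and PE-labelled monoclonal antibodies and read by flow cytometry. Values are % increase versus untreated cells.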

Fas [2] = assay: Fas expression at the cell surface by flow cytometry, OVCAR-3 cells; assay type: cell-based, human; details: OVCAR-3 ovarian cancer cells, 100 μg/ml sequence, 48 h, treated vs control cells
Method in brief: (§1)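 OVCAR-3 cells (2×10^5 cells/ml) incubated 48 h at 37° C with 0 or 100 μg/ml (5.5 μM) of the sequences. Surface Fas and FasL stained with FITC- and PE-conjugated monoclonal antibodies, read by flow cytometry; values are % increase over untreated controls.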

FasL [3] = assay: FasL expression at the cell surface by flow cytometry, OVCAR-3 cells; assay type: cell-based, human; details: OVCAR-3 ovarian cancer cells, 100 μg/ml sequence, 48 h, treated vs control cells
Method in brief: as §1

Jurkat T leukemia cells = assay: Inhibition of Jurkat leukemia T cell proliferation (MTT reduction); assay type: cell-based, human; details: for % INHIBITION of cell proliferation: Jurkat, 48 h
Protocol: UMUC-3 bladder cancer cells were incubated for 48 hours with 0.00, 0.02 and 0.20 μg/ml of agonistic anti-Fas monoclonal antibodies (clone CH-11: Coulter-Immunotech, Marseille, France) +0 or 10 μg/ml of SEQ ID NO:5. Cell proliferation was measured using dimethylthiazol-diphenyltetrazolium (MTT) reduction (Mosman et al. J. Immunol. Methods 65:55, 1983). MTT was measured at a wavelength of 570 nm using a multiplate spectrophotometer reader (ELX800, Bio-TEK Instruments Inc., Winooski, Vt.).
Jurkat T leukemia cells were incubated for 48 hours with 0.00, 0.02 and 0.20 μg/ml of agonistic anti-Fas monoclonal antibodies (clone CH-11) +0 and 10 μg/ml of SEQ ID NO:5. Cell proliferation was measured as in Example 13.

Fas [4] = assay: Fas expression at the cell surface by flow cytometry, MCF-7 cells; assay type: cell-based, human; details: MCF-7 breast cancer cells, 100 μg/ml sequence, 48 h, treated vs control cells
Method in brief: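 MCF-7 cells at 2×10^5 cells/ml incubated 48 h at 37° C, 5% CO2 with 0 or 100 μg/ml (5.5 μM) of the sequences. Surface Fas and FasL measured by flow cytometry with FITC anti-Fas and PE anti-FasL antibodies; values as % increase in treated versus control cells.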

Fas [5] = assay: Fas expression at the cell surface by flow cytometry, PBMCs; assay type: cell-based, human; details: 100 μg/ml sequence, 48 h, treated vs control cells
Method in brief: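 PBMCs isolated by Ficoll-Hypaque gradient were seeded at 2×10^5 cells/ml and exposed for 48 h at 37 °C to 0 or 100 μg/ml (5.5 μM) of the sequences. Surface Fas and FasL were stained with FITC anti-Fas and PE anti-FasL antibodies and analysed by flow cytometry, reported as % increase over untreated cells.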

FasL [6] = assay: FasL expression at the cell surface by flow cytometry, Jurkat cells; assay type: cell-based; details: Jurkat human leukemia T cells, 100 μg/ml sequence, 48 h, treated vs control cells
Method in brief: (§2)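 Jurkat cells (2×10^5 cells/ml) were incubated 48 h at 37° C. with 0 or 100 μg/ml (5.5 μM) of the sequences. Surface Fas and FasL were stained with FITC anti-Fas and PE anti-FasL antibodies and measured by flow cytometry, expressed as % increase over control cells.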

Fas [7] = assay: Fas expression at the cell surface by flow cytometry, Jurkat cells; assay type: cell-based; details: Jurkat human leukemia T cells, 100 μg/ml sequence, 48 h, treated vs control cells
Method in brief: as §2

Fas [8] = assay: Inhibition of Fas expression on Jurkat cells by cycloheximide; assay type: cell-based, human; details: for % INCREASE of Fas: Jurkat cells
Protocol: Fas and FasL expression were measured by flow cytometry using anti-Fas FITC-conjugated monoclonal antibodies and anti-FasL PE-conjugated monoclonal antibodies in a FACScalibur Flow Cytometer (Becton Dickinson, San Jose, Calif., USA) using the CELLQuest program (Becton Dickinson).
Results are expressed as percentage (%) increase in the expression of Fas and of FasL measured on treated cells compared to control cells.
Jurkat human leukemia T cells were pre-incubated with 0.0 μg/ml (−CHX) or with 0.1 μg/ml of cycloheximide (+CHX) for 1 h. Ten μg/ml or 100 μg/ml of 6 base SEQ ID NO:5 (GGGTGG) was added to both the −CHX and +CHX cells and the incubation was continued for 24 hours and for 48 hours (Table 10).

GGGTGG [SEQ ID NO:5]
% INCREASE Fas (Fas [1]): 80% | % INCREASE Fas (Fas [2]): 43% | % INCREASE FasL (FasL [3]): 9% | combined effect with agonistic anti-Fas antibodies on cell proliferation (Jurkat T leukemia cells; Jurkat T cells, 0.02 and 0.2 μg/ml anti-Fas antibodies, 10 μg/ml sequence): additive | % INHIBITION of cell proliferation (Jurkat T leukemia cells; 10 μg/ml sequence + anti-Fas antibodies 0.02 μg/ml): 28% | % INHIBITION of cell proliferation (Jurkat T leukemia cells; 10 μg/ml sequence + anti-Fas antibodies 0.2 μg/ml): 48% | % INHIBITION of cell proliferation (Jurkat T leukemia cells; 10 μg/ml sequence, anti-Fas antibodies 0.0 μg/ml): 16% | % INCREASE Fas (Fas [4]): 93% | % INCREASE Fas (Fas [5]): 3% | % INCREASE FasL (FasL [6]): 145% | % INCREASE Fas (Fas [7]): 150% | Fas expression (Fas [8]; Jurkat T cells, 10 or 100 μg/ml, 24 h and 48 h): upregulated Fas expression | % INCREASE of Fas (Fas [8]; 10 μg/ml sequence, 24 h, +CHX (0.1 μg/ml cycloheximide)): 5% | % INCREASE of Fas (Fas [8]; 10 μg/ml sequence, 24 h, −CHX): 63% | % INCREASE of Fas (Fas [8]; 10 μg/ml sequence, 48 h, +CHX (0.1 μg/ml cycloheximide)): 51% | % INCREASE of Fas (Fas [8]; 10 μg/ml sequence, 48 h, −CHX): 91% | % INCREASE of Fas (Fas [8]; 100 μg/ml sequence, 24 h, +CHX (0.1 μg/ml cycloheximide)): 22% | % INCREASE of Fas (Fas [8]; 100 μg/ml sequence, 24 h, −CHX): 62% | % INCREASE of Fas (Fas [8]; 100 μg/ml sequence, 48 h, +CHX (0.1 μg/ml cycloheximide)): 115% | % INCREASE of Fas (Fas [8]; 100 μg/ml sequence, 48 h, −CHX): 150%
